Results reported in patent US20130263297A1, “METHODS OF TREATING CANCER” (Cedars-Sinai Medical Center, priority 2010, published 2013).
“Also recorded” adds a separate entry of the source.

Tests used:
[1] = target: GFP-tagged RANKL stably expressed in ARCaPE cells (ARCaPE-RANKL); test: cell-based or functional assay
cMet in LNCaP cells = test: cMet expression and phosphorylation (Western blot), LNCaP; assay type: cell-based, human
cMet in ARCaPE cells = test: cMet expression and phosphorylation (Western blot), ARCaPE; assay type: cell-based, human; conditions: exogeneous RANKL or HGF treatment
[2] = tested on: RANKL promoter in ARCaPE, ARCaPM and ARCaPE-RANKL cells; test: RANKL promoter reporter assay, ARCaP model; assay type: cell-based, human; conditions: vitamin D3 and PTH stimulation
Source text: (§1) Because the inventors are interested in how RANKL is transcriptionally regulated, the inventors have constructed a 2.5 kb 5′ upstream region of RANKL promoter. The inventors used BAC clones (RP11-86N24) to amplify the promoter region of RANKL from human chromosome 13 contig. The whole promoter region (2.5 kb) was then cloned into pGL3 basic luciferase reporter vector. The inventors placed RANKL promoter reporter into ARCaPE,M, C4-2, and a positive cell line, SaOS-2 to examine the basic promoter activity. Then, the inventors stimulated the RANKL promoter by various growth factors, such as vitamin D3, PTH, and TGFβ.

[3] = tested on: RANKL promoter in LNCaP and LNCaP-RANKL cells; test: RANKL promoter reporter assay, LNCaP model; assay type: cell-based, human; conditions: for RANKL promoter activities in LNCaP cells: vitamin D3 and PTH stimulation
[4] = tested on: RANKL promoter in human osteosarcoma SaOS-2 cells; test: RANKL promoter reporter assay, SaOS-2; assay type: cell-based; conditions: exogenous PTH and vitamin D3
Source text: as §1

[5] = target: Flag-tagged RANKL stably expressed in LNCaP cells (LNCaP-RANKL); test: cell-based or functional assay
LNCaP-RANKL cells = test: Pathway inhibitor treatment followed by Western blot analysis, LNCaP-RANKL; assay type: cell-based, human; conditions: 4 h
Description: ARCaPE and LNCaP cells were cultured in 6-well plate and at 70% confluency, the cells were serum-starved overnight and then treated with 200 ng/ml of trimerized RANKL in serum-free and phenol-red free RPMI-1640 medium for three days before harvesting the cells. ARCaPE-RANKL and LNCaP-RANKL cells were cultured in 6-well plate and treated with 20 μM of LY294002, a PI3K inhibitor, 20 μM of SB203580, an inhibitor of MAP kinase reactivating kinase, or 2 μM of PS341 (bortezomib), a proteasome inhibitor, at 90% confluency for four hours. Cells were lysed in RIPA buffer containing 1× protease inhibitor cocktail (Thermo Fisher Scientific, Waltham, Mass.) and centrifuged, and the supernatants were collected and quantified using Bradford Protein Assay (Thermo Fisher Scientific, Waltham, Mass.). Cell lysates (20-30 μg) were resolved on a 4-12% Bis-Tris gradient SDS-PAGE (Invitrogen, Carlsbad, Calif.) under reducing conditions, followed by transblotting onto nitrocellulose membrane (BioRad, Hercules, Calif.). The membranes were blocked in 5% non-fat milk in PBST for one hour at room temperature (RT) and incubated with diluted primary antibodies in blocking buffer at 4° C. overnight. […]

ARCaPE-RANKL cells = test: Pathway inhibitor treatment followed by Western blot analysis, ARCaPE-RANKL; assay type: cell-based, human
Description: (§2) ARCaPE and LNCaP cells were cultured in 6-well plate and at 70% confluency, the cells were serum-starved overnight and then treated with 200 ng/ml of trimerized RANKL in serum-free and phenol-red free RPMI-1640 medium for three days before harvesting the cells. ARCaPE-RANKL and LNCaP-RANKL cells were cultured in 6-well plate and treated with 20 μM of LY294002, a PI3K inhibitor, 20 μM of SB203580, an inhibitor of MAP kinase reactivating kinase, or 2 μM of PS341 (bortezomib), a proteasome inhibitor, at 90% confluency for four hours. Cells were lysed in RIPA buffer containing 1× protease inhibitor cocktail (Thermo Fisher Scientific, Waltham, Mass.) and centrifuged, and the supernatants were collected and quantified using Bradford Protein Assay (Thermo Fisher Scientific, Waltham, Mass.). Cell lysates (20-30 μg) were resolved on a 4-12% Bis-Tris gradient SDS-PAGE (Invitrogen, Carlsbad, Calif.) under reducing conditions, followed by transblotting onto nitrocellulose membrane (BioRad, Hercules, Calif.). The membranes were blocked in 5% non-fat milk in PBST for one hour at room temperature (RT) and incubated with diluted primary antibodies in blocking buffer at 4° C. overnight. The primary antibodies used were RANKL, E-cadherin, vimentin, and OPG (Santa Cruz Biotechnology, Inc., Santa Cruz, Calif.), RANK (Amgen, Thousand Oaks, Calif.), N-cadherin (BD Transduction Laboratories, San Jose, Calif.), phosphor-Akt (Ser 473), Akt, phosphor-p38 (Thr180/Tyr182), p38, phosphor-ERK1/2 (Thr202/Tyr204), ERK, phosphor-SAPK/JNK (Thr183/Tyr185), JNK, phosphor-NF-κB p65 (Ser536), and NF-κB p65 (Cell Signaling Technology, Danvers, Mass.). The membranes were washed with PBST for three times before incubating with peroxidase-conjugated anti-mouse or anti-rabbit secondary antibodies at RT for one hour. After three times washing, the membranes were visualized using ECL Plus reagent (GE Healthcare, Piscataway, N.J.).

LNCaP cells = test: EMT marker / RANKL expression and signaling by RT-PCR and Western blot, LNCaP model; assay type: cell-based, human; conditions: 20 μM cMyc inhibitor
Description: Total RNA from cells was isolated using RNeasy Mini Kit (Qiagen, Valencia, Calif.) according to manufacturer's instructions. Complementary DNA (cDNA) was generated from 3 μg of total RNA using SuperScript® III First-Strand Synthesis System (Invitrogen, Carlsbad Calif.), and 1 μl of cDNA was subjected to PCR analyses using the following primers: RANKL F: 5′-TGGATCACAGCACATCAGAGCAG-3′ (SEQ ID NO:3); RANKL R: 5′-TGGGGCTCAATCTATATCTCGAAC-3′ (SEQ ID NO:4); RANK F: 5′-GGGAAAGCACTCACAGCTAATTTG-3′ (SEQ ID NO:5); RANK R: 5′-GCACTGGCTTAAACTGTCATTCTCC-3′ (SEQ ID NO:6); OPG F: 5′-GCT AAC CTC ACC TTC GAG-3′ (SEQ ID NO:7); OPG R: 5′-TGA TTG GAC CTG GTT ACC-3′ (SEQ ID NO:8); E-cadherin F: 5′-GCCAAGCAGCAGTACATTCTACACG-3′ (SEQ ID NO:9); E-cadherin R: 5′-GCTGTTCTTCACGTGCTCAAAATCC-3′ (SEQ ID NO:10); N-cadherin F: 5′-GATGTTGAGGTACAGAATCGT-3′ (SEQ ID NO:11); N-cadherin R: 5′-GGT CGG TCT GGA TGG CGA-3′ (SEQ ID NO:12); Snail F: 5′-CAGACCCACTCAGATGTCAA-3′ (SEQ ID NO:13); Snail R: 5′-CATAGTTAGTCACACCTCGT-3′ (SEQ ID NO:14); Vimentin F: 5′-GGA CTC GGT GGA CTT CTC-3′ (SEQ ID NO:15); Vimentin R: 5′-CGC ATC TCC TCC TCG TAG-3′ (SEQ ID NO:16). The PCR reaction cycles involved an initial denaturation at 94° C. for 10 min, followed by 36 cycles of 94° C., 1 min; 55° C., 30 sec for RANKL and RANK and 48° C., 1 min for OPG; 72° C., 1 min and a final extension at 72° C. for 10 min. For E-cadherin and N-cadherin gene amplification, the PCR reactions ran for a total of 32 cycles and the annealing temperature was 55° C. and 47° C., respectively for 30 sec. For Snail, Vimentin, and GAPDH amplification, the PCR reactions ran for a total of 28 cycles with annealing temperatures at 48° C. for 30 sec. The amplified PCR products were detected and analyzed on 1% agarose gel.
as §2

[6] = tested on: castration-resistant prostate cancer (CRPC) with bone metastasis; prostate or breast cancers; conditions: cited from earlier work
[7] = tested on: RANKL-expressing prostate cancer cells; test: Stem cell and neuroendocrine marker expression; assay type: cell-based
[8] = 20 μM LY294002 or 2 μM PS341, 4 h
[9] = men with clinical progressive prostate or breast cancers

With “recombinant osteoprotegerin (OPG) (receptor)” the formation of mature osteoclasts (TRAP+ multinucleated cells) in co-culture of RAW264.7 with ARCaPE-RANKL cells [1] was 2 fold.

In the case of “HGF: HGF, exogenous treatment activating c-Met”, the “p-c-Met expression of the RANKL-induced c-Met” value (cMet in LNCaP cells; addition of HGF) is reported as “increased”, the “cMet expression and phosphorylated level of cMet in LNCaP cells” value (cMet in LNCaP cells; exogeneous RANKL or HGF treatment) is reported as “significantly increased” and the “cMet expression and phosphorylated level of cMet in ARCaPE cells” value (cMet in ARCaPE cells) is reported as “significantly increased”.

For `C=C1CC[C@H](O)C/C1=C/C=C1\CCC[C@]2(C)[C@@H]([C@H](C)CCCC(C)C)CC[C@@H]12` [vitamin D3, reference compound], the “RANKL promoter activities in ARCaPE cells” value [2] was “induced”, the “RANKL promoter activities in LNCaP cells” value [3] was “induced” and the “RANKL transcriptional (promoter) activity in SaOS-2 cells” value [4] was “induced; also recorded: up-regulated”.

With recombinant osteoprotegerin (OPG) the formation of mature osteoclasts (TRAP+ multinucleated cells) in co-culture of RAW264.7 with LNCaP-RANKL cells [5] was 2 fold.

In the case of `CC(C)C[C@H](NC(=O)[C@H](Cc1ccccc1)NC(=O)c1cnccn1)B(O)O` [PS341, bortezomib], the “RANKL-induced EMT in LNCaP-RANKL cells” value (LNCaP-RANKL cells; 2 μM) is reported as “prevented”, the “RANKL-induced EMT in ARCaPE-RANKL cells” value (ARCaPE-RANKL cells; 2 μM, 4 h) is reported as “prevented” and the “E-cadherin expression in ARCaPE-RANKL cells” value (ARCaPE-RANKL cells; [8]) is reported as “increased”. For the same molecule, the “vimentin and RANKL expression in ARCaPE-RANKL cells” value (ARCaPE-RANKL cells; [8]) was “decreased”.

In the case of `CCc1ccc(/C=C2/SC(=S)NC2=O)cc1` [10058-F4, reference compound], the “RANKL transcriptional activity in LNCaP-RANKL cells or LNCaP cells treated with RANKL” value ([3]; 20 μM cMyc inhibitor) is reported as “significantly decreased” and the “RANKL protein expression in LNCaP-RANKL cells or LNCaP cells treated with RANKL” value (LNCaP cells) is reported as “significantly decreased”.

In the case of `C[S+]([O-])c1ccc(-c2nc(-c3ccncc3)c(-c3ccc(F)cc3)[nH]2)cc1` (stereo not shown) [SB203580], the “phosphorylated level of P65 in LNCaP-RANKL cells” value (LNCaP-RANKL cells; 20 μM) is reported as “reduction” and the “phosphorylated level of P65 in ARCaPE-RANKL cells” value (ARCaPE-RANKL cells; 20 μM, 4 h) is reported as “reduction”.

In the case of denosumab, the “osteonecrosis (undesirable side effects)” value ([6]; human, in vivo) is listed as “reported in some patients”, the “patients' survival” value [6, 9] is listed as “improved” and the skeletal related events [6, 9] is listed as “reduced”. For the same molecule, the “progression of castration-resistant prostate cancer (CRPC)” value ([6]; patients with bone metastasis) was “delay or prevent”, the “expression of neuroendocrine markers” value [7] was “blocked” and the “expression of stem cell markers” value [7] was “antagonized”.

B1: parathyroid hormone (protein, UniProt P01270 32-115, looked up)
Parathyroid hormone: SVSEIQLMHNLGKHLNSMERVEWLRKKLQDVHNFVALGAPLAPRDAGSQRPRKKEDNVLVESHEKSLGEADKADVNVLTKAKSQ
modifications: Parathyroid hormone
For B1, the “RANKL promoter activities in ARCaPE cells” value [2] was “induced”, the “RANKL promoter activities in LNCaP cells” value [3] was “induced” and the “RANKL transcriptional (promoter) activity in SaOS-2 cells” value [4] was “induced; also recorded: up-regulated”.
